Measured values published in patent publication US20220288057A1, “CONJOINT THERAPY FOR TREATING SEIZURE DISORDERS” (XENON PHARMACEUTICALS INC., priority 2021, published 2022).
Several values for one entry are separate records, joined by “and”; a condition that tells them apart may be missing. Identical values can stand only once. Like-named read-outs stand apart in the source and are kept apart here.

What was measured:
[1] = tested on: AC-MES-induced tonic seizures in CF-1 mice; assay: Mouse AC-MES assay (60 Hz, 40 mA, 0.2 s); format: in vivo; conditions: for EC50: Compound A PO 0.5 h alone
Procedure: The efficacy of Compound A and its pharmacological interaction with Lacosamide was evaluated after oral dosing in the mouse maximal electroshock seizure (AC-MES) assay.
The objective of these studies was to characterize the dose-dependent anticonvulsant activity of Compound A and its pharmacological interaction with Lacosamide in the AC-MES assay in mice after a single oral administration of the compounds. The AC-MES assay is typically responsive to non-selective sodium channel blockers and potassium channel openers, and has been used as a translational animal model for partial onset seizures.
The anticonvulsant efficacy of Compound A and Lacosamide, and the effect of combining Compound A with Lacosamide were tested in the AC-MES assay in male CF-1 mice following a single PO dose. Plasma and brain samples were obtained to understand the relationship between drug concentration and efficacy.
AC-MES Assay: The MES test has been extensively used in the search for anticonvulsant substances (Piredda et al., Löscher et al., and White et al.). The MES test is considered a model for generalized tonic-clonic (GTC) seizures and provides an indication of a compound's ability to prevent seizure spread. In the AC-MES model, an electroshock of alternating current (60 Hz, 40 mA) was delivered for 0.2 seconds by corneal electrodes (HSE-HA Rodent Shocker, Harvard Apparatus, model no: 73-0105). CF-1 mice were dosed PO (according to Standard Operating Procedure (SOP) TECH-006) with vehicle or Compound A 0.5 hours before the electroshock assay Immediately prior to the electroshock stimulation, the animals' eyes were anesthetized with a topical application of 0.5% Alcaine solution (proparacaine hydrochloride, one drop per eye). Mice were then restrained, the corneal electrodes applied, and the shock administered. In naïve animals, the seizure is characterized by an initial generalized tonic seizure with hindlimb tonic extensor component. An animal is considered protected from MES-induced seizures upon abolition of the hindlimb tonic extensor component of the seizure and is then scored “0”. […] Mice were euthanized immediately after an initial seizure score assessment following the electroshock for plasma and brain collection.
Data Processing and Analysis: All statistics were calculated using GraphPad Prism version 8 software. Concentration response curves were generated using the Hill Langmuir equation:
Y=B+(T−B)×x^n/(IC50^n+x^n), Equation 1
where: • B=bottom, set as 0. • T=top, set as 1. • n=the Hill coefficient, constrained to less than zero. • IC50=concentration of a compound required for 50% inhibition in vitro.
All group data is expressed as mean. Between-group differences were analyzed using Kruskal-Wallis followed by Dunn's multiple comparison test.
Plasma and brain samples were obtained to understand the relationship between drug concentration and efficacy.
(§1) The Blinding and Randomization, Clinical Observations, AC-MES Assay, Sample Collection and Preparation, Plasma and Brain Samples Analysis, and Bioanalysis Procedures in Example 4 were identical to those used in Example 2.
Sample concentration determination and Data Processing and Analysis in Example 4 was identical to Example 2.

CF-1 mouse = assay: Clinical observations / behavioral signs in AC-MES studies; format: in vivo
Procedure: Any qualitative changes from normal behavior were recorded.
Five oral (PO) doses of Compound A were each tested in the AC-MES model. Thirty minutes after administration of Compound A at 1 mg/kg (n=8), 3 mg/kg (n=8), 5 mg/kg (n=16), 7.5 mg/kg (n=7), and 10 mg/kg (n=17) via oral gavage to male CF-1 mice (body weights 28.2 to 43.8 g), the mice underwent a 60 Hz corneal electrical stimulus (0.2 seconds duration, 40 mA). This stimulus elicited a tonic hindlimb extension in all vehicle-dosed animals. […] An observational neurological assessment (qualitative test) was also conducted at the time of testing as a tolerability screen. Terminal plasma and brain samples were collected from all animals to obtain the levels of Compound A concentration, and to understand the relationship between efficacy and drug concentration.
as §1

[2] = Study 2A, Lacosamide 6 mg/kg PO, 2 h
[3] = Study 2A, Lacosamide 8 mg/kg PO, 2 h
[4] = Study 2B, Lacosamide 10 mg/kg PO, 2 h
[5] = Study 2C, Lacosamide 10 mg/kg PO, 2 h, alone
[6] = Study 2D, Lacosamide 6 mg/kg PO, 2 h
[7] = Study 2D, Lacosamide 20 mg/kg PO, 2 h
[8] = Study 2A, Compound A 1 mg/kg PO, 0.5 h
[9] = Study 2A, Compound A 5 mg/kg PO, 0.5 h
[10] = Study 2A, Compound A 10 mg/kg PO, 0.5 h
[11] = Study 2B, Compound A 5 mg/kg PO, 0.5 h
[12] = Study 2B, Compound A 7.5 mg/kg PO, 0.5 h
[13] = Study 2B, Compound A 10 mg/kg PO, 0.5 h
[14] = Study 2C, Compound A 3 mg/kg PO, 0.5 h, alone
[15] = dosed in combination with Cenobamate vs alone

For `COC[C@@H](NC(C)=O)C(=O)NCc1ccccc1` [Lacosamide, reference compound], the “Fraction Seizing” value [1, 2] was 8/8, the “Fraction Seizing” value [1, 3] was 8/8 and the “Fraction Seizing” value [1, 4] was 8/8. For the same molecule, the “Fraction Seizing” value [1, 5] was 6/8, the “Fraction Seizing” value [1, 6] was 8/8 and the “Fraction Seizing” value [1, 7] was 3/8. For the same molecule, the “Fraction with Behavioral Signs” value (CF-1 mouse; [2]) was 0/8, the “Fraction with Behavioral Signs” value (CF-1 mouse; [3]) was 0/8 and the “Fraction with Behavioral Signs” value (CF-1 mouse; [4]) was 0/8. The “Fraction with Behavioral Signs” value (CF-1 mouse; [5]) was 0/8, the “Fraction with Behavioral Signs” value (CF-1 mouse; [6]) was 0/8 and the “Fraction with Behavioral Signs” value (CF-1 mouse; [7]) was 0/8.
For `NC(=O)O[C@@H](Cn1ncnn1)c1ccccc1Cl` [Cenobamate, reference compound], the “fraction of animals seizing” value ([1]; Cenobamate 7.5 mg/kg PO, 2 h, alone) was 3/7, the “fraction of animals seizing” value ([1]; Cenobamate 10 mg/kg PO, 2 h, alone) was 1/8 and the “fraction of animals seizing” value ([1]; Cenobamate 30 mg/kg PO, 2 h, alone) was 0/8. The “fraction of animals seizing” value ([1]; Cenobamate lower doses of 3 and 5 mg/kg PO, 2 h, alone) was 7/8, the “Fraction Seizing” value ([1]; Study 4D, Cenobamate 3 mg/kg single oral dose, 2 h pre-treatment, vehicle 8/8) was 8/8 and the “Fraction Seizing” value ([1]; Study 4D, Cenobamate 10 mg/kg single oral dose, 2 h pre-treatment, vehicle 8/8) was 1/8. For the same molecule, the “Fraction Seizing” value ([1]; Study 4D, Cenobamate 30 mg/kg single oral dose, vehicle 8/8) was 0/8, the “Fraction Seizing” value ([1]; Study 4E, Cenobamate 3 mg/kg single oral dose, 2 h pre-treatment, vehicle 8/8) was 6/7 and the “Fraction Seizing” value ([1]; Study 4E, Cenobamate 5 mg/kg single oral dose, 2 h pre-treatment, vehicle 8/8) was 6/7. For the same molecule, the “Fraction Seizing” value ([1]; Study 4E, Cenobamate 7.5 mg/kg single oral dose, 2 h pre-treatment, vehicle 8/8) was 3/8, the “fraction of animals seizing” value ([1]; Study 4F, Cenobamate 5 mg/kg PO, 2 h, alone) was 8/8 and the “Fraction Seizing” value ([1]; Study 4F, Cenobamate 5 mg/kg PO alone, 2 h pre-treatment, vehicle 8/8) was 8/8. For the same molecule, the “Fraction with Behavioral Signs” value (CF-1 mouse; Study 4D, Cenobamate 3 mg/kg single oral dose) was 0/8, the “Fraction with Behavioral Signs” value (CF-1 mouse; Study 4D, Cenobamate 10 mg/kg single oral dose) was 0/8 and the “Fraction with Behavioral Signs” value (CF-1 mouse; Study 4D, Cenobamate 30 mg/kg single oral dose) was 0/8. The “Fraction with Behavioral Signs” value (CF-1 mouse; Study 4E, Cenobamate 3 mg/kg single oral dose) was 0/8, the “Fraction with Behavioral Signs” value (CF-1 mouse; Study 4E, Cenobamate 5 mg/kg single oral dose) was 0/8 and the “Fraction with Behavioral Signs” value (CF-1 mouse; Study 4E, Cenobamate 7.5 mg/kg single oral dose) was 0/8. For the same molecule, the “Fraction with Behavioral Signs” value (CF-1 mouse; Study 4F, Cenobamate 5 mg/kg PO alone) was 0/8.
Work on `Cc1cc(N2CCc3cc(F)ccc3C2)cc(C)c1NC(=O)CC(C)(C)C` [Compound A, N-[4-(6-fluoro-3,4-dihydro-1H-isoquinolin-2-yl)-2,6-dimethylphenyl]-3,3-dimethylbutanamide] yielded an EC50 ([1]; composite of Studies 4A, 4B, 4C, 4F, read-out: EC50 for plasma) of 296 nM, an EC50 ([1]; Mus musculus, po, 0.5 h, composite of Studies 2A, 2B, 2C, read-out: EC50 for brain tissue) of 471 nM and an EC50 ([1]; Mus musculus, po, 0.5 h, composite of Studies 2A, 2B, 2C, read-out: EC50 for plasma) of 300 nM. For the same molecule, the EC50 ([1]; Mus musculus, po, 0.5 h, composite of Studies 4A, 4B, 4C, 4F, read-out: EC50 for brain tissue) was 470 nM, the EC50 ([1]; Mus musculus, po, 0.5 h, composite of Studies 4A, 4B, 4C, 4F, read-out: EC50 for plasma) was 300 nM and the “Fraction Seizing” value [1, 8] was 8/8. For the same molecule, the “Fraction Seizing” value [1, 9] was 7/8, the “Fraction Seizing” value [1, 10] was 3/8 and the “Fraction Seizing” value [1, 11] was 0/8. The “Fraction Seizing” value [1, 12] was 0/7, the “Fraction Seizing” value [1, 13] was 1/9 and the “Fraction Seizing” value [1, 14] was 2/8. For the same molecule, the “fraction of animals seizing” value ([1]; Study 4A, Compound A 1 mg/kg PO, 0.5 h) was 8/8, the “fraction of animals seizing” value ([1]; Study 4A, Compound A 5 mg/kg PO, 0.5 h) was 7/8 and the “fraction of animals seizing” value ([1]; Study 4A, Compound A 10 mg/kg PO, 0.5 h) was 3/8. For the same molecule, the “Fraction Seizing” value ([1]; Study 4A, Compound A 1 mg/kg single oral dose, 30 min pre-treatment, vehicle 8/8) was 8/8, the “Fraction Seizing” value ([1]; Study 4A, Compound A 5 mg/kg single oral dose, 30 min pre-treatment, vehicle 8/8) was 7/8 and the “Fraction Seizing” value ([1]; Study 4A, Compound A 10 mg/kg single oral dose, 30 min pre-treatment, vehicle 8/8) was 3/8. The “fraction of animals seizing” value ([1]; Study 4B, Compound A 5 mg/kg PO, 0.5 h) was 0/8, the “fraction of animals seizing” value ([1]; Study 4B, Compound A 10 mg/kg PO, 0.5 h) was 1/9 and the “Fraction Seizing” value ([1]; Study 4B, Compound A 5 mg/kg single oral dose, vehicle 8/8) was 0/8. The “Fraction Seizing” value ([1]; Study 4B, Compound A 7.5 mg/kg single oral dose, vehicle 8/8) was 0/7, the “Fraction Seizing” value ([1]; Study 4B, Compound A 10 mg/kg single oral dose, vehicle 8/8) was 1/9 and the “fraction of animals seizing” value ([1]; Study 4C, Compound A 3 mg/kg PO, 0.5 h) was 2/8. For the same molecule, the “Fraction Seizing” value ([1]; Study 4C, Compound A 3 mg/kg single oral dose, vehicle 8/8) was 2/8, the “fraction of animals seizing” value ([1]; Study 4F, Compound A 2 mg/kg PO, 0.5 h, alone) was 5/8 and the “Fraction Seizing” value ([1]; Study 4F, Compound A 2 mg/kg PO alone, 0.5 h pre-treatment, vehicle 8/8) was 5/8. The “increase in the potency of Compound A, brain tissue” value [1, 15] was 14.2 fold, the “increase in the potency of Compound A, plasma” value [1, 15] was 33.3 fold and the “Fraction with Behavioral Signs” value (CF-1 mouse; [8]) was 0/8. For the same molecule, the “Fraction with Behavioral Signs” value (CF-1 mouse; [9]) was 0/8, the “Fraction with Behavioral Signs” value (CF-1 mouse; [10]) was 1/8 and the “plasma concentration of individual mouse showing behavioral signs (tremors, decreased activity, splayed hindlimbs)” value (CF-1 mouse; Study 2A, Compound A 10 mg/kg group, 10 mg/kg) was 390 nM. The “Fraction with Behavioral Signs” value (CF-1 mouse; [11]) was 0/8, the “Fraction with Behavioral Signs” value (CF-1 mouse; [12]) was 1/7 and the “plasma concentration of individual mouse showing behavioral signs (tremors, decreased activity, splayed hindlimbs)” value (CF-1 mouse; Study 2B, Compound A 7.5 mg/kg group, 7.5 mg/kg) was 750 nM. For the same molecule, the “Fraction with Behavioral Signs” value (CF-1 mouse; [13]) was 2/9, the “plasma concentration of individual mouse showing behavioral signs (tremors, decreased activity, splayed hindlimbs)” value (CF-1 mouse; Study 2B, Compound A 10 mg/kg group, two mice, 10 mg/kg) was 516 nM and 610 nM and 520 nM and the “Fraction with Behavioral Signs” value (CF-1 mouse; [14]) was 0/8. The “plasma concentration of individual mouse showing behavioral signs (tremors, decreased activity, splayed hindlimbs)” value (CF-1 mouse; Study 4A, Compound A 10 mg/kg group) was 390 nM, the “Behavioral Signs (fraction)” value (CF-1 mouse; Study 4A, Compound A 1 mg/kg single oral dose) was 0/8 and the “Behavioral Signs (fraction)” value (CF-1 mouse; Study 4A, Compound A 5 mg/kg single oral dose) was 0/8. The “Behavioral Signs (fraction)” value (CF-1 mouse; Study 4A, Compound A 10 mg/kg single oral dose) was 1/8, the “plasma concentration of individual mouse showing behavioral signs (tremors, decreased activity, splayed hindlimbs)” value (CF-1 mouse; Study 4B, Compound A 7.5 mg/kg group) was 750 nM and the “plasma concentration of individual mouse showing behavioral signs (tremors, decreased activity, splayed hindlimbs)” value (CF-1 mouse; Study 4B, Compound A 10 mg/kg group, two mice, 10 mg/kg) was 610 nM and 520 nM. The “Fraction with Behavioral Signs” value (CF-1 mouse; Study 4B, Compound A 5 mg/kg single oral dose) was 0/8, the “Fraction with Behavioral Signs” value (CF-1 mouse; Study 4B, Compound A 7.5 mg/kg single oral dose) was 1/7 and the “Fraction with Behavioral Signs” value (CF-1 mouse; Study 4B, Compound A 10 mg/kg single oral dose) was 2/9. For the same molecule, the “Fraction with Behavioral Signs” value (CF-1 mouse; Study 4C, Compound A 3 mg/kg single oral dose) was 0/8 and the “Fraction with Behavioral Signs” value (CF-1 mouse; Study 4F, Compound A 2 mg/kg PO alone) was 0/8.
